This note sets out measurements from the supplement of paper PMC10307832.

What all share (assay): relative viability (nuclei count vs DMSO), 5 days (fraction); higher = more cells survive
Compound in the test “Ibrutinib + Navitoclax”: C=CC(=O)N1CCC[C@@H](n2nc(-c3ccc(Oc4ccccc4)cc3)c3c(N)ncnc32)C1 [Ibrutinib] + CC1(C)CCC(c2ccc(Cl)cc2)=C(CN2CCN(c3ccc(C(=O)NS(=O)(=O)c4ccc(N[C@H](CCN5CCOCC5)CSc5ccccc5)c(S(=O)(=O)C(F)(F)F)c4)cc3)CC2)C1 [Navitoclax] (partner 0.5 µM)
A digest of the protocol: (§1)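 Relative viability was taken as the ratio of nuclei in treated wells to nuclei in vehicle wells. Lung cancer cell lines in 1536-well plates received compounds by pin tool one day after seeding, either one drug alone or a fixed anchor-drug dose plus five library-drug doses (not always all listed) in √10 steps. Nuclei were counted on 4× images after 5 days of treatment, and values are medians of duplicate plates.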

Compound in the test “Ibrutinib + Phenformin”: C=CC(=O)N1CCC[C@@H](n2nc(-c3ccc(Oc4ccccc4)cc3)c3c(N)ncnc32)C1 [Ibrutinib] + N=C(N)NC(=N)NCCc1ccccc1 [Phenformin] (partner 250 µM)
A digest of the protocol:
as §1

Compound in the test “Ibrutinib + Pemetrexed”: C=CC(=O)N1CCC[C@@H](n2nc(-c3ccc(Oc4ccccc4)cc3)c3c(N)ncnc32)C1 [Ibrutinib] + Nc1nc2[nH]cc(CCc3ccc(C(=O)N[C@@H](CCC(=O)O)C(=O)O)cc3)c2c(=O)[nH]1 [Pemetrexed] (partner 0.2 µM)
The gist of the method:
as §1

Compound in the test “BMX-IN-1 + Lapatinib”: C=CC(=O)Nc1cc(-n2c(=O)ccc3cnc4ccc(-c5ccc(NS(C)(=O)=O)cc5)cc4c32)ccc1C [BMX-IN-1] + CS(=O)(=O)CCNCc1ccc(-c2ccc3ncnc(Nc4ccc(OCc5cccc(F)c5)c(Cl)c4)c3c2)o1 [Lapatinib] (partner 2 µM)
A digest of the protocol: as §1

Turning to SK-MES-1, the relative viability with Ibrutinib + Navitoclax (first compound 0.005 µM) stood at 1.19; with Ibrutinib + Navitoclax (first compound 0.01581 µM), 1.2; with Ibrutinib + Navitoclax (first compound 0.05 µM), 1.34; in the test with Ibrutinib + Navitoclax (first compound 0.1581 µM) it was 1.32; in the test with Ibrutinib + Navitoclax (first compound 0.5 µM), 0.723; with Ibrutinib + Phenformin (first compound 0.005 µM), 0.733. The relative viability in the test with Ibrutinib + Phenformin (first compound 0.01581 µM) was 0.629; with Ibrutinib + Phenformin (first compound 0.05 µM), 0.638; with Ibrutinib + Phenformin (first compound 0.1581 µM), 0.704; in the test with Ibrutinib + Phenformin (first compound 0.5 µM), 0.501; in the test with Ibrutinib + Pemetrexed (first compound 0.005 µM), 1.01; with Ibrutinib + Pemetrexed (first compound 0.01581 µM), 0.951. For the same cell line, the relative viability was determined as 0.905 in the test with Ibrutinib + Pemetrexed (first compound 0.05 µM); 1.14 with Ibrutinib + Pemetrexed (first compound 0.1581 µM); 0.752 with Ibrutinib + Pemetrexed (first compound 0.5 µM); 0.473 in the test with BMX-IN-1 + Lapatinib (first compound 0.02 µM); 0.466 with BMX-IN-1 + Lapatinib (first compound 0.2 µM); 0.489 in the test with BMX-IN-1 + Lapatinib (first compound 0.6325 µM). Moreover, in the test with BMX-IN-1 + Lapatinib (first compound 2 µM), the relative viability turned out to be 0.439.
